From ChEMBL document CHEMBL1122492, “Synthesis of iodine-125 labeled (+/-)-15-(4-azidobenzyl)carazolol: a potent beta-adrenergic photoaffinity probe” (J Med Chem, 1983)

How the values were obtained:
[1] = Dissociation constant against beta adrenergic receptor
[2] = Dissociation constant against beta adrenergic receptor of frog erythrocyte membranes
[3] = Dissociation constant against beta adrenergic receptor of turkey erythrocyte membranes

| SMILES | Kd [1] | Kd [2] | Kd [3] |
| --- | --- | --- | --- |
| CC(C)NCC(O)COc1cccc2[nH]c3ccccc3c12 (stereo not given) [CARAZOLOL] | 0.1 nM | – | – |
| CC(C)(Cc1ccc(N=[N+]=[N-])cc1)NCC(O)COc1ccc(I)c2[nH]c3ccccc3c12 (stereo not given) | – | 0.02 nM | 0.02 nM |
| CC(C)(Cc1ccc(N=[N+]=[N-])c(I)c1)NCC(O)COc1cccc2[nH]c3ccccc3c12 (stereo not given) | – | 0.02 nM | 0.02 nM |
